This passage reports IC50 results from patent publication US20260151375A1, “CDK2 INHIBITORS AND METHODS OF USING THE SAME” (Cedilla Therapeutics, Inc., priority 2022, published 2026).

The structures appear in SMILES notation. Where two headings read alike, the source gives them in different places.

The target in assay [1] is T1, CDK2/Cyclin E1 (Homo sapiens, UniProt P24941).
T1 construct: purchased 14-475
In words: ADPGLO (CDK2/E1-37 C), ADP-Glo Luminescent Kinase Assay. Particulars: 0.18 nM CDK2/Cyclin E1, 100 μM ATP, Histone H1, 37° C. In kind it is biochemical. As to the method: Inhibition of CDK2/Cyclin E1 activity by the presence of small molecules was evaluated using ADP-Glo Luminescent Kinase Assay (Promega). Activated CDK2/Cyclin E1 was incubated with its substrate Histone H1 (SignalChem H10-54N) in the kinase reaction buffer (100 μM ATP, 50 mM HEPES pH 7.5, 10 mM MgCl2, 1 mM EDTA, 2 mM DTT, 0.01% Brij35, 0.5 mg/mL BSA). Luminescence was recorded with an Envision plate reader (PerkinElmer).
Dose titrations of inhibitors in 100% DMSO were combined with 0.36 nM CDK2/Cyclin E1 in reaction buffer. The mixtures were incubated for 60 minutes at 37° C. before the addition of ATP and Histone H1 substrate to initiate the kinase reaction. The final conditions were 0.18 nM CDK2/Cyclin E1, 100 μM ATP, and 1.5 μM Histone H1. The reactions were incubated at 37° C. for 90 minutes before being stopped with the addition of ADP-Glo reagent. This mixture was incubated at room temperature for 60 minutes before Kinase Detection Solution is added to generate luminescence. The stopped reactions were analyzed on an Envision plate reader. The conversion ratios were normalized to yield % activity, plotted against compound concentration, and fit to a four-parameter equation to determine the IC50 for each compound.
Background: ADP-Glo turns the ADP formed in a reaction into a luminescent signal.

Another assay concerns Kuramochi cells. In words: IncuCyte Kuramochi Assay (cell proliferation). In kind it is cell-based. Particulars: Kuramochi cells labeled with mApple-H2B, cell count, read-out: IncuCyte - Kuramochi RB-WT: IC50. An outline of the steps: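 Cells imaged at 0 and 72 h after compound treatment (10 points, ½ log dilution, 20 μM top), with fluorescent nuclei counted. Fold change in count was normalized to DMSO wells and fitted to dose-response curves to give GI50.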

For assay [2], the target named is T1, CDK2/Cyclin E1. In words: Caliper Assay (LabChip EZ Reader mobility shift assay), inhibition of CDK2/Cyclin E1 activity. Type of assay: biochemical. Particulars: 2.5 nM CDK2/Cyclin E1(14-475), 100 μM ATP, 30 min preincubation; read-out: Caliper Assay (CDK2/CCNE1): IC50. In outline: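 Compounds were preincubated 30 min with CDK2/Cyclin E1(14-475), then run for 100 min with 2.5 nM enzyme, 100 μM ATP and 1.5 μM 5-FAM-QSPKKG peptide in HEPES pH 7.5 (final). Reactions were EDTA-stopped and substrate-to-product conversion read by mobility shift. IC50 came from a four-parameter fit.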

Turning to `CC(c1nc(C2CN(C(=O)c3cnn(Cc4ccc(C#N)cc4C(=O)O)c3)CC23CN(C(=O)C2(C(F)(F)F)CC2)C3)no1)n1ccc(C2(C(F)(F)F)CC2)n1` (centres unmarked) [I-214], the IC50 at CDK2/Cyclin E1 [1] is 0.5 to 5 µM; in the assay with Kuramochi cells (72 h) it was more than 10 µM.
The corresponding values for `CC(c1nc(C2CN(C(=O)c3cnn(Cc4nnnn4C)c3)CC23CN(C(=O)[C@H]2CC2(C)C)C3)no1)n1ccc(C2CCCC2)n1` (stereo partly drawn) [I-111, (8-(5-(1-(3-cyclopentyl-1H-pyrazol-1-yl)ethyl)-1,2,4-oxadiazol-3-yl)-2-((S)-2,2-dimethylcyclopropane-1-carbonyl)-2,6-diazaspiro[3.4]octan-6-yl)(1-((1-methyl-1H-tetrazol-5-yl)methyl)-1H-pyrazol-4-yl)methanone] are 0.5 to 5 µM and 5 to 10 µM.
Regarding `O=C(c1cnn(Cc2cccc3[nH]cnc23)c1)N1CC(c2nnc(C(F)(F)c3ccc(Cl)c(Cl)c3)o2)C2(C1)CN(C(=O)C1(C(F)(F)F)CC1)C2` (centres unmarked) [I-108, (1-((1H-benzo[d]imidazol-4-yl)methyl)-1H-pyrazol-4-yl)(8-(5-((3,4-dichlorophenyl)difluoromethyl)-1,3,4-oxadiazol-2-yl)-2-(1-(trifluoromethyl)cyclopropane-1-carbonyl)-2,6-diazaspiro[3.4]octan-6-yl)methanone], the figures for the IC50 at CDK2/Cyclin E1 [1] and with Kuramochi cells (72 h) were 0.5 to 5 µM and 5 to 10 µM, respectively.
The corresponding values for `COC(=O)c1ccc(Cn2cc(C(=O)N3CC(c4noc(C(C)n5ccc(C6CCCC6)n5)n4)C4(C3)CN(C(=O)[C@H]3CC3(C)C)C4)cn2)cn1` (some centres unmarked) [I-117] are 0.5 to 5 µM and more than 10 µM.
With `CC(c1nc(C2CN(C(=O)c3cnc(O)cn3)CC23CN(C(=O)[C@H]2CC2(F)F)C3)no1)n1ccc(C2CCOCC2)n1` (stereo partly drawn) [I-116, (2-((R)-2,2-difluorocyclopropane-1-carbonyl)-8-(5-(1-(3-(tetrahydro-2H-pyran-4-yl)-1H-pyrazol-1-yl)ethyl)-1,2,4-oxadiazol-3-yl)-2,6-diazaspiro[3.4]octan-6-yl)(5-hydroxypyrazin-2-yl)methanone], the IC50 at CDK2/Cyclin E1 [1] and in the assay with Kuramochi cells (72 h) was more than 10 µM in each case.
With `CC1(C)C[C@@H]1C(=O)N1CC2(CN(C(=O)c3cnn(Cc4ccccc4)c3)C[C@@H]2c2nnc(Cc3ccc(Cl)c(Cl)c3)o2)C1` [I-16, (1-benzyl-1H-pyrazol-4-yl)((R)-8-(5-(3,4-dichlorobenzyl)-1,3,4-oxadiazol-2-yl)-2-((S)-2,2-dimethylcyclopropane-1-carbonyl)-2,6-diazaspiro[3.4]octan-6-yl)methanone], the values for the IC50 at CDK2/Cyclin E1 [2] and in the assay on Kuramochi cells (72 h) were 1 to 10 µM and more than 10 µM, respectively.
In the same order, the values of `CC1(C)C[C@@H]1C(=O)N1CC2(CN(C(=O)c3cnn(Cc4ccccc4)c3)CC2c2nnc(Nc3ccc(Br)cc3)o2)C1` (stereo partly drawn) [I-5, (1-benzyl-1H-pyrazol-4-yl)(8-(5-((4-bromophenyl)amino)-1,3,4-oxadiazol-2-yl)-2-((S)-2,2-dimethylcyclopropane-1-carbonyl)-2,6-diazaspiro[3.4]octan-6-yl)methanone] are 1 to 10 µM and more than 10 µM.
The corresponding values for `CC(c1coc(C2CCCC2)n1)c1nc(C2CN(C(=O)c3cncs3)CC23CN(C(=O)[C@H]2CC2(C)C)C3)no1` (some centres unmarked) [I-100] are 0.1 to 1 µM and 5 to 10 µM.
The corresponding values for `CC1(C)C[C@@H]1C(=O)N1CC2(CN(C(=O)c3cncs3)CC2c2cn(Cc3cccc(C(F)(F)F)c3)nn2)C1` (some centres unmarked) [I-195] are 1 to 10 µM and more than 10 µM.
Turning to `CC1(C)C[C@@H]1C(=O)N1CC2(CN(C(=O)c3cncs3)CC2c2nnc(Cc3ccc4c(c3)CCCO4)o2)C1` (some centres unmarked) [I-71], the IC50 was 1 to 10 µM on CDK2/Cyclin E1 [2] and more than 10 µM in the assay on Kuramochi cells (72 h).
Regarding `CC1(C)C[C@@H]1C(=O)N1CC2(CN(C(=O)c3cncs3)CC2c2nnc(Cc3cccc(C4CCOCC4)n3)o2)C1` (some centres unmarked) [I-25], the IC50 was 0.1 to 1 µM at CDK2/Cyclin E1 [2] and more than 10 µM in the assay on Kuramochi cells (72 h).
The corresponding values for `O=C(c1cncs1)N1CC(c2nnc(C(F)(F)c3ccc(Cl)c(Cl)c3)o2)C2(C1)CN(C(=O)C1CNC1)C2` (centres unmarked) [I-173] are more than 10 µM and more than 10 µM.
In the same order, the values of `CC(c1nc(C2CN(C(=O)c3cncs3)CC23CN(C(=O)[C@H]2CC2(C)C)C3)no1)n1cc(C2CCCC2)cn1` (some centres unmarked) [I-64] are 0.01 to 0.1 µM and more than 10 µM.
As for `O=C(c1onc2ccccc12)N1CC(c2nnc(C(F)(F)c3ccc(Cl)c(Cl)c3)o2)C2(C1)CN(C(=O)[C@H]1CC1(F)F)C2` (single isomer, unassigned) [I-151 2nd], the values for the IC50 on CDK2/Cyclin E1 [2] and in the assay with Kuramochi cells (72 hours) were 1 to 10 µM and more than 10 µM, respectively.
On to `CC1(C)C[C@@H]1C(=O)N1CC2(CN(C(=O)c3cnn(Cc4ccccc4)c3)CC2c2nnc(CCC3CCC(F)(F)CC3)o2)C1` (some centres unmarked) [I-17], for which the IC50 at CDK2/Cyclin E1 [2] was 0.1 to 1 µM; in the assay on Kuramochi cells (72 h) it was more than 10 µM.
In the same order, the values of `CC(C)(C#N)C(=O)N1CC2(CN(C(=O)c3cnccn3)CC2c2nnc(C(F)(F)c3ccc(Cl)c(Cl)c3)o2)C1` (centres unmarked) [I-175] are more than 10 µM and more than 10 µM.
As for `COc1ccccc1C(F)(F)c1nnc(C2CN(C(=O)c3cncs3)CC23CN(C(=O)[C@H]2CC2(C)C)C3)o1` (some centres unmarked) [I-34], the IC50 was 1 to 10 µM at CDK2/Cyclin E1 [2] and more than 10 µM in the assay on Kuramochi cells (72 h).
The corresponding values for `O=C(N1CC2(C1)CN(c1ncnc3ncsc13)CC2c1nnc(C(F)(F)c2ccc(Cl)c(Cl)c2)o1)C1(C(F)(F)F)CC1` (centres unmarked) [I-181, (8-(5-((3,4-dichlorophenyl)difluoromethyl)-1,3,4-oxadiazol-2-yl)-6-(thiazolo[4,5-d]pyrimidin-7-yl)-2,6-diazaspiro[3.4]octan-2-yl)(1-(trifluoromethyl)cyclopropyl)methanone] are more than 10 µM and more than 10 µM.
In the same order, the values of `CC(C)(C#N)C(=O)N1CC2(CN(C(=O)c3cn[nH]c3)CC2c2nnc(C(F)(F)c3ccc(Cl)c(Cl)c3)o2)C1` (centres unmarked) [I-177] are more than 10 µM and more than 10 µM.
The corresponding values for `O=C(c1cn[nH]c1C(F)(F)F)N1CC(c2nnc(C(F)(F)c3ccc(Cl)c(Cl)c3)o2)C2(C1)CN(C(=O)[C@H]1CC1(F)F)C2` (stereo partly drawn) [I-167, (8-(5-((3,4-dichlorophenyl)difluoromethyl)-1,3,4-oxadiazol-2-yl)-2-((R)-2,2-difluorocyclopropane-1-carbonyl)-2,6-diazaspiro[3.4]octan-6-yl)(5-(trifluoromethyl)-1H-pyrazol-4-yl)methanone] are more than 10 µM and more than 10 µM.
Take `Cc1ccc(CNC(=O)c2coc(C3CN(C(=O)c4cnn(Cc5ccccc5)c4)CC34CN(C(=O)[C@H]3CC3(C)C)C4)n2)nn1` (some centres unmarked) [I-10]: the IC50 on CDK2/Cyclin E1 [2] and in the assay on Kuramochi cells (72 h) was more than 10 µM each time.
With `CC1(C)C[C@@H]1C(=O)N1CC2(CN(C(=O)c3cnc(C(F)(F)F)s3)CC2c2nnc(C(F)(F)c3ccc(Cl)c(Cl)c3)o2)C1` (some centres unmarked) [I-54], the IC50 at CDK2/Cyclin E1 [2] and in the assay with Kuramochi cells (72 h) was more than 10 µM each time.
Take `C[C@@H](NC(=O)c1coc(C2CN(C(=O)c3cnn(Cc4ccccc4)c3)CC23CN(C(=O)[C@H]2CC2(C)C)C3)n1)c1ccccc1` (some centres unmarked) [I-11]: the values for the IC50 on CDK2/Cyclin E1 [2] and with Kuramochi cells (72 h) were 1 to 10 µM and not above 0.5 µM, respectively.
In the same order, the values of `O=C(c1cncs1)N1CC(c2nnc(C(F)(F)c3ccc(Cl)c(Cl)c3)o2)C2(C1)CN(C(=O)[C@H]1CCCN1)C2` (stereo partly drawn) [I-169 1st, 2-(2-(D-prolyl)-6-(thiazole-5-carbonyl)-2,6-diazaspiro[3.4]octan-8-yl)-5-((3,4-dichlorophenyl)difluoromethyl)-1,3,4-oxadiazole] are more than 10 µM and 5 to 10 µM.
In the same order, the values of `O=C(c1cnc2ccccc2n1)N1CC(c2nnc(C(F)(F)c3ccc(Cl)c(Cl)c3)o2)C2(C1)CN(C(=O)[C@H]1CC1(F)F)C2` (some centres unmarked) [I-165] are 1 to 10 µM and more than 10 µM.
As for `O=C(N1CC(c2nnc(C(F)(F)c3ccc(Cl)c(Cl)c3)o2)C2(C1)CN(C(=O)C(F)(F)F)C2)C(F)(F)F` (centres unmarked) [I-205, 1,1′-(8-(5-((3,4-dichlorophenyl)difluoromethyl)-1,3,4-oxadiazol-2-yl)-2,6-diazaspiro[3.4]octane-2,6-diyl)bis(2,2,2-trifluoroethan-1-one)], the results for the IC50 at CDK2/Cyclin E1 [2] and in the assay on Kuramochi cells (72 h) were more than 10 µM and 5 to 10 µM, respectively.
Regarding `CC(c1nc(C2CN(C(=O)c3cncs3)CC23CN(C(=O)[C@H]2CC2(C)C)C3)no1)n1nc(Cl)cc1Cl` (some centres unmarked) [I-81], the IC50 is 1 to 10 µM on CDK2/Cyclin E1 [2] and 0.5 to 5 µM in the assay with Kuramochi cells (72 h).
The corresponding values for `CC1(C)C[C@@H]1C(=O)N1CC2(CN(C(=O)c3cncs3)CC2c2nnc(C3(c4ccc(Cl)c(Cl)c4)CC(O)C3)o2)C1` (some centres unmarked) [I-61] are 0.01 to 0.1 µM and more than 10 µM.
